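48-hour exposure; five concentrations; linearly interpolated endpoints. At the TGI there is no net growth.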
Columns and labels:
Assay in all cases: NCI anticancer screen, dose series, 48 h
HCT-116 colon = system: HCT-116 colon
XF 498 CNS = system: XF 498 CNS
NCI-H23 lung = system: NCI-H23 lung
OVCAR-4 ovarian = system: OVCAR-4 ovarian
OVCAR-8 ovarian = system: OVCAR-8 ovarian
SF-295 CNS = system: SF-295 CNS
SNB-75 CNS = system: SNB-75 CNS
COLO 205 colon = system: COLO 205 colon
MOLT-4 leukemia = system: MOLT-4 leukemia
A498 renal = system: A498 renal
SF-268 CNS = system: SF-268 CNS
U251 CNS = system: U251 CNS
SK-MEL-28 melanoma = system: SK-MEL-28 melanoma
DLD-1 colon = system: DLD-1 colon
HCC-2998 colon = system: HCC-2998 colon
LOX IMVI melanoma = system: LOX IMVI melanoma
SK-MEL-5 melanoma = system: SK-MEL-5 melanoma
NCI-H460 lung = system: NCI-H460 lung
HOP-62 NSCLC = system: HOP-62 NSCLC
ACHN renal = system: ACHN renal
SK-MEL-2 melanoma = system: SK-MEL-2 melanoma
RXF 393 renal = system: RXF 393 renal
UACC-62 melanoma = system: UACC-62 melanoma
SN12C renal = system: SN12C renal
SK-OV-3 ovarian = system: SK-OV-3 ovarian
LXFL 529 NSCLC = system: LXFL 529 NSCLC
CAKI-1 renal = system: CAKI-1 renal
SNB-78 CNS = system: SNB-78 CNS
UO-31 renal = system: UO-31 renal
DMS 114 small cell lung = system: DMS 114 small cell lung
HCT-15 colon = system: HCT-15 colon
CCRF-CEM leukemia = system: CCRF-CEM leukemia
DMS 273 small cell lung = system: DMS 273 small cell lung
KM12 colon = system: KM12 colon
M19-MEL melanoma = system: M19-MEL melanoma
SF-539 CNS = system: SF-539 CNS
HT29 colon = system: HT29 colon
EKVX NSCLC = system: EKVX NSCLC
IGROV1 ovarian = system: IGROV1 ovarian
SW-620 colon = system: SW-620 colon
786-0 renal = system: 786-0 renal
RPMI-8226 leukemia = system: RPMI-8226 leukemia
TK-10 renal = system: TK-10 renal
RXF-631 renal = system: RXF-631 renal
NCI-H226 lung = system: NCI-H226 lung
UACC-257 melanoma = system: UACC-257 melanoma
K-562 leukemia = system: K-562 leukemia
NCI-H522 lung = system: NCI-H522 lung
KM20L2 colon = system: KM20L2 colon
OVCAR-3 ovarian = system: OVCAR-3 ovarian
SNB-19 CNS = system: SNB-19 CNS
MALME-3M melanoma = system: MALME-3M melanoma
M14 melanoma = system: M14 melanoma
A549 NSCLC = system: A549 NSCLC
HL-60(TB) leukemia = system: HL-60(TB) leukemia
HOP-18 NSCLC = system: HOP-18 NSCLC
SR leukemia = system: SR leukemia
OVCAR-5 ovarian = system: OVCAR-5 ovarian
HOP-92 NSCLC = system: HOP-92 NSCLC

Measured: TGI

O=C1CCCCCCCCCCC(=O)C2CCOCCOCCOCCC1Cc1cccc(n1)C2
not listed: HL-60(TB) leukemia | HOP-18 NSCLC | SR leukemia | OVCAR-5 ovarian | HOP-92 NSCLC
> 100 µM: all other assays above

CCCCCCCCCCC(C)CCCCCCC(=O)OCC(COP(=O)([O-])OCC[N+](C)(C)C)OC(=O)CCCCCCC(C)CCCCCCCCCC (stereo unspecified)
not listed: XF 498 CNS | SF-539 CNS
> 100 µM: all other assays above
